# Data reported in ChEMBL document CHEMBL3861943 (Medchemcomm, 2016).
# Tests used:
# [1] = Cytotoxicity against human HCT116 cells assessed as decrease in cell proliferation after 72 hrs by MTT reduction assay; assay type: functional, cell-based; conditions: HCT-116, 72 h
# [2] = Cytotoxicity against human BxPC3 cells assessed as decrease in cell proliferation after 72 hrs by MTT reduction assay; assay type: functional, cell-based; conditions: BXPC-3, 72 h
# [3] = Cytotoxicity against human WI38 cells assessed as decrease in cell proliferation after 72 hrs by MTT reduction assay; assay type: toxicity, cell-based, WI-38
# [4] = biological target: Dihydroorotate dehydrogenase (quinone), mitochondrial (Homo sapiens, UniProt Q02127); assay: Inhibition of recombinant human DHODH by DCIP-based assay; assay type: single protein
# BXPC-3 [5] = assay: Induction of apoptosis in human BxPC3 cells assessed as necrotic cells at 0.2 uM after 48 hrs by annexin V-FITC/propidium iodide staining-based flow cytometric method (reference value: 1.15%); assay type: functional
# BXPC-3 [6] = assay: Induction of apoptosis in human BxPC3 cells assessed as necrotic cells at 0.2 uM after 36 hrs by annexin V-FITC/propidium iodide staining-based flow cytometric method (reference value: 1.15%); assay type: functional
# BXPC-3 [7] = assay: Induction of apoptosis in human BxPC3 cells assessed as early apoptotic cells at 0.2 uM after 36 hrs by annexin V-FITC/propidium iodide staining-based flow cytometric method (reference value: 0.344%); assay type: functional
# BXPC-3 [8] = assay: Induction of apoptosis in human BxPC3 cells assessed as late apoptotic cells at 0.2 uM after 48 hrs by annexin V-FITC/propidium iodide staining-based flow cytometric method (reference value: 6.73%); assay type: functional
# BXPC-3 [9] = assay: Induction of apoptosis in human BxPC3 cells assessed as late apoptotic cells at 0.2 uM after 24 hrs by annexin V-FITC/propidium iodide staining-based flow cytometric method (reference value: 6.73%); assay type: functional
# HCT-116 [10] = assay: Induction of apoptosis in human HCT116 cells assessed as late apoptotic cells at 0.2 uM after 48 hrs by annexin V-FITC/propidium iodide staining-based flow cytometric method (reference value: 3.84%); assay type: functional
# HCT-116 [11] = assay: Induction of apoptosis in human HCT116 cells assessed as viable cells at 0.2 uM after 36 hrs by annexin V-FITC/propidium iodide staining-based flow cytometric method (reference value: 91.8%); assay type: functional; conditions: HCT-116, 36 h, read-out: Activity
# HCT-116 [12] = assay: Induction of apoptosis in human HCT116 cells assessed as necrotic cells at 0.2 uM after 24 hrs by annexin V-FITC/propidium iodide staining-based flow cytometric method (reference value: 2.14%); assay type: functional
# HCT-116 [13] = assay: Induction of apoptosis in human HCT116 cells assessed as necrotic cells at 0.2 uM after 48 hrs by annexin V-FITC/propidium iodide staining-based flow cytometric method (reference value: 2.14%); assay type: functional
# BXPC-3 [14] = assay: Induction of apoptosis in human BxPC3 cells assessed as necrotic cells at 0.2 uM after 24 hrs by annexin V-FITC/propidium iodide staining-based flow cytometric method (reference value: 1.15%); assay type: functional
# HCT-116 [15] = assay: Induction of apoptosis in human HCT116 cells assessed as late apoptotic cells at 0.2 uM after 36 hrs by annexin V-FITC/propidium iodide staining-based flow cytometric method (reference value: 3.84%); assay type: functional
# HCT-116 [16] = assay: Induction of apoptosis in human HCT116 cells assessed as viable cells at 0.2 uM after 24 hrs by annexin V-FITC/propidium iodide staining-based flow cytometric method (reference value: 91.8%); assay type: functional; conditions: HCT-116, 24 h, read-out: Activity
# BXPC-3 [17] = assay: Induction of apoptosis in human BxPC3 cells assessed as viable cells at 0.2 uM after 48 hrs by annexin V-FITC/propidium iodide staining-based flow cytometric method (reference value: 91.8%); assay type: functional; conditions: BXPC-3, 48 h, read-out: Activity
# BXPC-3 [18] = assay: Induction of apoptosis in human BxPC3 cells assessed as early apoptotic cells at 0.2 uM after 24 hrs by annexin V-FITC/propidium iodide staining-based flow cytometric method (reference value: 0.344%); assay type: functional
# BXPC-3 [19] = assay: Induction of apoptosis in human BxPC3 cells assessed as viable cells at 0.2 uM after 24 hrs by annexin V-FITC/propidium iodide staining-based flow cytometric method (reference value: 91.8%); assay type: functional; conditions: BXPC-3, 24 h, read-out: Activity
# HCT-116 [20] = assay: Induction of apoptosis in human HCT116 cells assessed as viable cells at 0.2 uM after 48 hrs by annexin V-FITC/propidium iodide staining-based flow cytometric method (reference value: 91.8%); assay type: functional; conditions: HCT-116, 48 h, read-out: Activity
# HCT-116 [21] = assay: Induction of apoptosis in human HCT116 cells assessed as early apoptotic cells at 0.2 uM after 24 hrs by annexin V-FITC/propidium iodide staining-based flow cytometric method (reference value: 2.25%); assay type: functional
# HCT-116 [22] = assay: Induction of apoptosis in human HCT116 cells assessed as early apoptotic cells at 0.2 uM after 48 hrs by annexin V-FITC/propidium iodide staining-based flow cytometric method (reference value: 2.25%); assay type: functional
# HCT-116 [23] = assay: Induction of apoptosis in human HCT116 cells assessed as early apoptotic cells at 0.2 uM after 36 hrs by annexin V-FITC/propidium iodide staining-based flow cytometric method (reference value: 2.25%); assay type: functional
# BXPC-3 [24] = assay: Induction of apoptosis in human BxPC3 cells assessed as late apoptotic cells at 0.2 uM after 36 hrs by annexin V-FITC/propidium iodide staining-based flow cytometric method (reference value: 6.73%); assay type: functional
# BXPC-3 [25] = assay: Induction of apoptosis in human BxPC3 cells assessed as viable cells at 0.2 uM after 36 hrs by annexin V-FITC/propidium iodide staining-based flow cytometric method (reference value: 91.8%); assay type: functional; conditions: BXPC-3, 36 h, read-out: Activity
# BXPC-3 [26] = assay: Induction of apoptosis in human BxPC3 cells assessed as early apoptotic cells at 0.2 uM after 48 hrs by annexin V-FITC/propidium iodide staining-based flow cytometric method (reference value: 0.344%); assay type: functional
# HCT-116 [27] = assay: Induction of apoptosis in human HCT116 cells assessed as necrotic cells at 0.2 uM after 36 hrs by annexin V-FITC/propidium iodide staining-based flow cytometric method (reference value: 2.14%); assay type: functional
# HCT-116 [28] = assay: Induction of apoptosis in human HCT116 cells assessed as late apoptotic cells at 0.2 uM after 24 hrs by annexin V-FITC/propidium iodide staining-based flow cytometric method (reference value: 3.84%); assay type: functional
# Chain of Dihydroorotate dehydrogenase (quinone), mitochondrial (Q02127 whole entry): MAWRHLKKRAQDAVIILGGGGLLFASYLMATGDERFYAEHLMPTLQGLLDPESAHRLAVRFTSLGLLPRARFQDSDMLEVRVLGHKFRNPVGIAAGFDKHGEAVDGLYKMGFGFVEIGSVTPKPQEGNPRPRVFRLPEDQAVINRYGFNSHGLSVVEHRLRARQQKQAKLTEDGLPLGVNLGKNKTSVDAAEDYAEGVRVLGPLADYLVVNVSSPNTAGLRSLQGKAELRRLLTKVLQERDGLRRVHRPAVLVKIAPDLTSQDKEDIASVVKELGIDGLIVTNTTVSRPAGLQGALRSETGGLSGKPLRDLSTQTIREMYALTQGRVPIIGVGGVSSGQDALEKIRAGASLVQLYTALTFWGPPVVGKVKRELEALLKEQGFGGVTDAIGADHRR
smiles,measurement,setting,value
CN(/N=C/c1ccccc1C(=O)O)c1nc(-c2cc(Cl)ccc2Cl)cs1,IC50,[1],301 nM
same,IC50,[2],1610 nM
same,IC50 at 72 h,[3],61000 nM
O=C(O)c1ccccc1/C=N/Nc1nc(-c2ccccc2)cs1,IC50,[1],880 nM
same,IC50,[4],139 nM
same,IC50,[2],18900 nM
same,IC50 at 72 h,[3],34200 nM
Cc1sc(N/N=C/c2ccccc2C(=O)O)nc1-c1ccccc1,IC50,[1],6420 nM
same,IC50,[2],19800 nM
same,IC50 at 72 h,[3],21500 nM
CN(/N=C/c1ccc(F)cc1C(=O)O)c1nc(-c2ccccc2Cl)cs1,IC50,[1],23 nM
same,Activity,BXPC-3 [5],1.59%
same,Activity,BXPC-3 [6],7.38%
same,Activity,BXPC-3 [7],0.701%
same,Activity,BXPC-3 [8],93.2%
same,Activity,BXPC-3 [9],15.4%
same,IC50,[4],2 nM
same,IC50,[2],88 nM
same,Activity,HCT-116 [10],25.4%
same,viability at 0.2 µM,HCT-116 [11],86.5%
same,Activity,HCT-116 [12],1.78%
same,Activity,HCT-116 [13],1.67%
same,Activity,BXPC-3 [14],3.23%
same,Activity,HCT-116 [15],7.5%
same,viability at 0.2 µM,HCT-116 [16],92%
same,viability at 0.2 µM,BXPC-3 [17],4.8%
same,Activity,BXPC-3 [18],1.01%
same,viability at 0.2 µM,BXPC-3 [19],80.4%
same,viability at 0.2 µM,HCT-116 [20],68.3%
same,Activity,HCT-116 [21],3.11%
same,Activity,HCT-116 [22],4.59%
same,Activity,HCT-116 [23],4.54%
same,IC50 at 72 h,[3],29700 nM
same,Activity,BXPC-3 [24],52.6%
same,viability at 0.2 µM,BXPC-3 [25],39.3%
same,Activity,BXPC-3 [26],0.392%
same,Activity,HCT-116 [27],1.46%
same,Activity,HCT-116 [28],3.11%
O=C(O)c1ccccc1/C=N/Nc1nc(-c2ccccc2Cl)cs1,IC50,[1],713 nM
same,IC50,[4],29 nM
same,IC50,[2],3410 nM
same,IC50 at 72 h,[3],39100 nM
Cc1ccc(/C=N/N(C)c2nc(-c3ccccc3)c(C)s2)c(C(=O)O)c1,IC50,[1],87 nM
same,IC50,[2],300 nM
same,IC50 at 72 h,[3],41800 nM
CCc1sc(N/N=C/c2ccccc2C(=O)O)nc1-c1ccccc1Cl,IC50,[1],922 nM
same,IC50,[2],2790 nM
same,IC50 at 72 h,[3],22400 nM
CCN(/N=C/c1ccccc1C(=O)O)c1nc(-c2ccccc2Cl)cs1,IC50,[1],299 nM
same,IC50,[4],59 nM
same,IC50,[2],199 nM
same,IC50 at 72 h,[3],9980 nM
CN(/N=C/c1ccccc1C(=O)O)c1nc(-c2cccc(Cl)c2)cs1,IC50,[1],268 nM
same,IC50,[2],1590 nM
same,IC50 at 72 h,[3],6570 nM
Cc1ccc(/C=N/N(C)c2nc(-c3ccccc3Cl)cs2)c(C(=O)O)c1,IC50,[1],54 nM
same,IC50,[4],8 nM
same,IC50,[2],203 nM
same,IC50 at 72 h,[3],17000 nM
Cc1c(-c2ccc(-c3ccccc3F)cc2)nc2ccc(F)cc2c1C(=O)O [BREQUINAR SODIUM],IC50,[1],158 nM
same,IC50,[2],940 nM
same,IC50 at 72 h,[3],34000 nM
CCCC(C)N(/N=C/c1ccccc1C(=O)O)c1nc(-c2ccccc2Cl)c(C)s1 (centres undefined),IC50,[1],181 nM
same,IC50,[2],801 nM
same,IC50 at 72 h,[3],10100 nM
CCCN(/N=C/c1ccccc1C(=O)O)c1nc(-c2ccccc2Cl)cs1,IC50,[1],276 nM
same,IC50,[4],9 nM
same,IC50,[2],263 nM
same,IC50 at 72 h,[3],10800 nM
CC(C)N(/N=C/c1ccccc1C(=O)O)c1nc(-c2ccccc2Cl)cs1,IC50,[1],108 nM
same,IC50,[4],93 nM
same,IC50,[2],312 nM
same,IC50 at 72 h,[3],18800 nM
CN(/N=C/c1ccc(C(F)(F)F)cc1C(=O)O)c1nc(-c2ccccc2Cl)cs1,IC50,[1],2000 nM
same,IC50,[2],2980 nM
same,IC50 at 72 h,[3],60900 nM
O=C(O)c1ccccc1/C=N/N(CCO)c1nc(-c2ccccc2Cl)cs1,IC50,[1],763 nM
same,IC50,[4],425 nM
same,IC50,[2],4320 nM
same,IC50 at 72 h,[3],48700 nM
CCCC(C)N(/N=C/c1ccccc1C(=O)O)c1nc(-c2ccccc2Cl)cs1 (centres undefined),IC50,[1],588 nM
same,IC50,[2],988 nM
same,IC50 at 72 h,[3],29100 nM
Cc1sc(N/N=C/c2ccccc2C(=O)O)nc1-c1ccccc1Cl,IC50,[1],375 nM
same,IC50,[2],2970 nM
same,IC50 at 72 h,[3],44600 nM
CCC(C)N(/N=C/c1ccccc1C(=O)O)c1nc(-c2ccccc2Cl)cs1 (centres undefined),IC50,[1],244 nM
same,IC50,[4],24 nM
same,IC50,[2],536 nM
same,IC50 at 72 h,[3],8300 nM
CN(/N=C/c1ccccc1C(=O)O)c1nc(-c2ccccc2Cl)cs1,IC50,[1],31 nM
same,IC50,[4],8 nM
same,IC50,[2],80 nM
same,IC50 at 72 h,[3],9580 nM
